Source: US11078170B2 (Assembly Biosciences, Inc., priority 2017, dated 2021)
pEC50: −log10 of the molar value.

These compounds were tested on HBV viral production from HepAD38 cells (assay: Activity of test compounds on viral production from HepAD38 cells (viral load by qPCR of HBV core sequence in supernatant)). Conditions: Hepatitis B virus, 120 h, 5 days incubation, HBV DNA in supernatant by qPCR, top concentration 10 μM, read-out: Viral Load EC50 Activity range.
Assay type: cell-based
Procedure, shortened: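 HepAD38 cells, 50,000/well in tetracycline-free 2% FBS medium, treated 5 days at 37° C. with compound from 10 μM top concentration. HBV DNA in supernatant quantified by TaqMan qPCR of core sequence against DNA standards, relative to DMSO wells; CellTiter-Glo viability read in parallel. EC50/CC50 from four-parameter logistic fit.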

Question: With `CN1C(C(=O)Nc2ccc(F)c(Cl)c2)CC(c2ccc(-c3ccc(F)cc3)s2)NS1(=O)=O` (stereo not drawn) [HBV-CSU-238] as the compound, how does the pEC50 read?
Answer: > 6.00

Question: With `CN1[C@@H](C(=O)Nc2ccc(F)c(Cl)c2)C[C@@H](c2ccc(-c3cccnc3)s2)NS1(=O)=O` [HBV-CSU-159-ISO-I, Cis-N-(3-chloro-4-fluorophenyl)-2-methyl-5-(5-(pyridin-3-yl)thiophen-2-yl)-1,2,6-thiadiazinane-3-carboxamide 1,1-dioxide] as the compound, how does the pEC50 read?
Answer: 5.30 to 6.00

Question: `CN1[C@H](C(=O)Nc2ccc(F)c(Cl)c2)C[C@H](c2ccc(-c3cnn(C)c3)cc2)NS1(=O)=O` [HBV-CSU-246-ISO-II, Cis-N-(3-Chloro-4-fluorophenyl)-2-methyl-5-(4-(1-methyl-1H-pyrazol-4-yl)phenyl)-1,2,6-thiadiazinane-3-carboxamide 1,1-dioxide] was tested. Which pEC50 did it give?
Answer: > 6.00

Question: How did the pEC50 turn out when `CN1[C@@H](C(=O)Nc2ccc(F)c(Cl)c2)C[C@@H](c2cc(-c3cccs3)cs2)NS1(=O)=O` [HBV-CSU-170-ISO-II] was run?
Answer: > 6.00

Question: With `CCN(CC)CCCN1[C@H](C(=O)Nc2ccc(F)c(Cl)c2)C[C@H](c2nccs2)NS1(=O)=O` (relative stereo) [HBV-CSU-101-ISO-II, Cis-N-(3-Chloro-4-fluorophenyl)-2-(3-(diethylamino)propyl)-5-(thiazol-2-yl)-1,2,6-thiadiazinane-3-carboxamide 1,1-dioxide] as the compound, how does the pEC50 read?
Answer: < 5.30

Question: How did the pEC50 turn out when `Cc1nn(C)cc1-c1csc([C@@H]2C[C@H](C(=O)Nc3ccc(F)c(Cl)c3)N(C)S(=O)(=O)N2)c1` (relative stereo) [HBV-CSU-316-ISO-II, Cis-N-(3-chloro-4-fluorophenyl)-5-(4-(1,3-dimethyl-1H-pyrazol-4-yl)thiophen-2-yl)-2-methyl-1,2,6-thiadiazinane-3-carboxamide 1,1-dioxide] was run?
Answer: > 6.00

Question: With `CN1[C@H](C(=O)Nc2ccc(F)c(Cl)c2)C[C@H](c2ccc(F)s2)NS1(=O)=O` [HBV-CSU-029-ISO-I, Cis-N-(3-chloro-4-fluorophenyl)-5-(5-fluorothiophen-2-yl)-2-methyl-1,2,6-thiadiazinane-3-carboxamide 1,1-dioxide] as the compound, how does the pEC50 read?
Answer: > 6.00

Question: With `CN1[C@@H](C(=O)Nc2ccc(F)c(Cl)c2)C[C@@H](c2ncc(-c3ccc(NS(C)(=O)=O)cc3)s2)NS1(=O)=O` [HBV-CSU-179-ISO-II, Cis-N-(3-Chloro-4-fluorophenyl)-2-methyl-5-(5-(4-(methylsulfonamido)phenyl)thiazol-2-yl)-1,2,6-thiadiazinane-3-carboxamide 1,1-dioxide] as the compound, how does the pEC50 read?
Answer: 5.30 to 6.00

Question: `CN1[C@@H](C(=O)Nc2ccc(F)c(Cl)c2)C[C@@H](c2ccc(-c3cncnc3)s2)NS1(=O)=O` [HBV-CSU-272-ISO-II, Cis-N-(3-chloro-4-fluorophenyl)-2-methyl-5-(5-(pyrimidin-5-yl)thiophen-2-yl)-1,2,6-thiadiazinane-3-carboxamide 1,1-dioxide] was tested. Which pEC50 did it give?
Answer: < 5.30

Question: How did the pEC50 turn out when `CN1C(C(=O)Nc2ccc(F)c(Cl)c2)CC(c2ccc(Cc3ccccc3)s2)NS1(=O)=O` (stereo not drawn) [HBV-CSU-117, Cis-(5-benzylthiophen-2-yl)-N-(3-chloro-4-fluorophenyl)-2-methyl-1,2,6-thiadiazinane-3-carboxamide 1,1-dioxide] was run?
Answer: > 6.00

Question: With `CN(C)CCCOc1ccc([C@H]2C[C@@H](C(=O)Nc3ccc(F)c(Cl)c3)N(C)S(=O)(=O)N2)cc1` [HBV-CSU-208-ISO-II, Cis-N-(3-chloro-4-fluorophenyl)-5-(4-(3-(dimethylamino)propoxy)phenyl)-2-methyl-1,2,6-thiadiazinane-3-carboxamide 1,1-dioxide] as the compound, how does the pEC50 read?
Answer: > 6.00

Question: How did the pEC50 turn out when `CN1C(C(=O)Nc2ccc(F)c(Cl)c2)CC(c2nc(Br)cs2)NS1(=O)=O` (racemic) [HBV-CSU-150, Cis-5-(4-Bromothiazol-2-yl)-N-(3-chloro-4-fluorophenyl)-2-methyl-1,2,6-thiadiazinane-3-carboxamide 1,1-dioxide] was run?
Answer: > 6.00

Question: How did the pEC50 turn out when `COc1ccc(-c2cnc([C@@H]3C[C@H](C(=O)Nc4ccc(F)c(Cl)c4)N(C)S(=O)(=O)N3)s2)cc1` [HBV-CSU-250-ISO-II, Cis-N-(3-Chloro-4-fluorophenyl)-5-(5-(4-methoxyphenyl)thiazol-2-yl)-2-methyl-1,2,6-thiadiazinane-3-carboxamide 1,1-dioxide] was run?
Answer: 5.30 to 6.00

Question: With `CN1[C@H](C(=O)Nc2ccc(F)c(Cl)c2)C[C@H](c2ncc(-c3cn[nH]c3)s2)NS1(=O)=O` [HBV-CSU-254-ISO-I, Cis-5-(5-(1H-pyrazol-4-yl)thiazol-2-yl)-N-(3-chloro-4-fluorophenyl)-2-methyl-1,2,6-thiadiazinane-3-carboxamide 1,1-dioxide] as the compound, how does the pEC50 read?
Answer: > 6.00

Question: With `CN1C(C(=O)Nc2ccc(F)c(Cl)c2)CC(c2ncc(-c3ccccn3)s2)NS1(=O)=O` (racemic) [HBV-CSU-176, Cis-N-(3-chloro-4-fluorophenyl)-2-methyl-5-(5-(pyridin-2-yl)thiazol-2-yl)-1,2,6-thiadiazinane-3-carboxamide 1,1-dioxide] as the compound, how does the pEC50 read?
Answer: > 6.00

Question: `CN1[C@H](C(=O)Nc2ccc(F)c(Cl)c2)C[C@H](c2cc(-c3ccccn3)cs2)NS1(=O)=O` [HBV-CSU-168-ISO-II, Cis-N-(3-chloro-4-fluorophenyl)-2-methyl-5-(4-(pyridin-2-yl)thiophen-2-yl)-1,2,6-thiadiazinane-3-carboxamide 1,1-dioxide] was tested. Which pEC50 did it give?
Answer: > 6.00

Question: With `CN1[C@H](C(=O)Nc2ccc(F)c(Cl)c2)C[C@H](c2cc(-c3ncn(C)n3)cs2)NS1(=O)=O` [HBV-CSU-326-ISO-I, Cis-N-(3-chloro-4-fluorophenyl)-2-methyl-5-(4-(1-methyl-1H-1,2,4-triazol-3-yl)thiophen-2-yl)-1,2,6-thiadiazinane-3-carboxamide 1,1-dioxide] as the compound, how does the pEC50 read?
Answer: > 6.00

Question: With `CN1[C@@H](C(=O)Nc2ccc(F)c(Cl)c2)C[C@@H](c2ccc(OCC(=O)O)cc2)NS1(=O)=O` [HBV-CSU-216-ISO-II, Cis-2-(4-(5-((3-Chloro-4-fluorophenyl)carbamoyl)-6-methyl-1,1-dioxido-1,2,6-thiadiazinan-3-yl)phenoxy)acetic acid] as the compound, how does the pEC50 read?
Answer: < 5.30

Question: `CN1C(C(=O)Nc2cc(F)c(F)c(F)c2)CC(c2ccc(F)cc2)NS1(=O)=O` (racemic) [HBV-CSU-212, Cis-5-(4-Fluorophenyl)-2-methyl-N-(3,4,5-trifluorophenyl)-1,2,6-thiadiazinane-3-carboxamide 1,1-dioxide] was tested. Which pEC50 did it give?
Answer: > 6.00

Question: With `CN1[C@H](C(=O)Nc2ccc(F)c(Cl)c2)C[C@H](c2cccc(F)c2)NS1(=O)=O` (relative stereo) [HBV-CSU-231-ISO-I, Cis-N-(3-Chloro-4-fluorophenyl)-5-(3-fluorophenyl)-2-methyl-1,2,6-thiadiazinane-3-carboxamide 1,1-dioxide] as the compound, how does the pEC50 read?
Answer: > 6.00

Question: `CN1[C@H](C(=O)Nc2ccc(F)c(Cl)c2)C[C@H](c2ncc(-c3ccc(NS(C)(=O)=O)cc3)s2)NS1(=O)=O` [HBV-CSU-179-ISO-I, Cis-N-(3-Chloro-4-fluorophenyl)-2-methyl-5-(5-(4-(methylsulfonamido)phenyl)thiazol-2-yl)-1,2,6-thiadiazinane-3-carboxamide 1,1-dioxide] was tested. Which pEC50 did it give?
Answer: > 6.00

Question: `CN1[C@@H](C(=O)Nc2ccc(F)c(Cl)c2)C[C@@H](c2cc(-c3nncn3C)cs2)NS1(=O)=O` [HBV-CSU-328-ISO-II, Cis-N-(3-chloro-4-fluorophenyl)-2-methyl-5-(4-(4-methyl-4H-1,2,4-triazol-3-yl)thiophen-2-yl)-1,2,6-thiadiazinane-3-carboxamide 1,1-dioxide] was tested. Which pEC50 did it give?
Answer: < 5.30

Question: How did the pEC50 turn out when `CN1[C@H](C(=O)Nc2ccc(F)c(Cl)c2)C[C@H](c2ccc(Br)s2)NS1(=O)=O` [HBV-CSU-114-ISO-I, (3S,5R)-5-(5-Bromothiophen-2-yl)-N-(3-chloro-4-fluorophenyl)-2-methyl-1,2,6-thiadiazinane-3-carboxamide 1,1-dioxide] was run?
Answer: > 6.00

Question: How did the pEC50 turn out when `CN1[C@H](C(=O)Nc2ccc(F)c(Cl)c2)C[C@H](c2cc(-c3ccc(F)cc3)cs2)NS1(=O)=O` [HBV-CSU-239-ISO-I] was run?
Answer: > 6.00

Question: `[2H]C([2H])([2H])N1[C@H](C(=O)Nc2ccc(F)c(Cl)c2)C[C@H](c2ccc(Br)s2)NS1(=O)=O` [HBV-CSU-370-ISO-I, Cis-5-(5-bromothiophen-2-yl)-N-(3-chloro-4-fluorophenyl)-2-(methyl-d3)-1,2,6-thiadiazinane-3-carboxamide 1,1-dioxide] was tested. Which pEC50 did it give?
Answer: > 6.00

Question: How did the pEC50 turn out when `CN1[C@H](C(=O)Nc2ccc(F)c(Cl)c2)C[C@H](c2ccc3c(c2)ncn3C)NS1(=O)=O` [HBV-CSU-360-ISO-I, Cis-N-(3-chloro-4-fluorophenyl)-2-methyl-5-(1-methyl-1H-benzo[d]imidazol-5-yl)-1,2,6-thiadiazinane-3-carboxamide 1,1-dioxide] was run?
Answer: 5.30 to 6.00

Question: How did the pEC50 turn out when `CN1[C@H](C(=O)Nc2ccc(F)c(Cl)c2)C[C@H](c2cc(-c3cnn(C)c3)c(Cl)s2)NS1(=O)=O` [HBV-CSU-306-ISO-I, Cis-5-(5-chloro-4-(1-methyl-1-pyrazol-4-yl)thiophen-2-yl)-N-(3-chloro-4-fluorophenyl)-2-methyl-1,2,6-thiadiazinane-3-carboxamide 1,1-dioxide] was run?
Answer: > 6.00

Question: `CN1C(C(=O)Nc2ccc(F)c(Cl)c2)CC(c2ccc(C#N)c(F)c2)NS1(=O)=O` (racemic) [HBV-CSU-221, Cis-N-(3-chloro-4-fluorophenyl)-5-(4-cyano-3-fluorophenyl)-2-methyl-1,2,6-thiadiazinane-3-carboxamide 1,1-dioxide] was tested. Which pEC50 did it give?
Answer: > 6.00

Question: With `CN1C(C(=O)Nc2ccc(Cl)cc2)CC(c2cccs2)NS1(=O)=O` (stereo not drawn) [HBV-CSU-014, Cis-N-(4-chlorophenyl)-2-methyl-5-(thiophen-2-yl)-1,2,6-thiadiazinane-3-carboxamide 1,1-dioxide] as the compound, how does the pEC50 read?
Answer: 5.30 to 6.00

Question: With `CN1[C@@H](C(=O)Nc2ccc(F)c(Cl)c2)C[C@@H](c2ccc(-c3cnn(C)c3)cc2)NS1(=O)=O` (relative stereo) [HBV-CSU-246-ISO-I, Cis-N-(3-Chloro-4-fluorophenyl)-2-methyl-5-(4-(1-methyl-1H-pyrazol-4-yl)phenyl)-1,2,6-thiadiazinane-3-carboxamide 1,1-dioxide] as the compound, how does the pEC50 read?
Answer: < 5.30
